Reference: US20070270421A1, “Novel pyridine Derivative and Pyrimidine Derivative (1)” (priority 2004, published 2007)

Experiments:
[1] = tested on: Human gastric cancer cells (MKN-45) tumor; test: Inhibitory activity against the tumor growth of human gastric cancer cells (MKN-45) transplanted in mice; format: in vivo, BALB/c (nu/nu) mice; conditions: oral, twice every day, fifth day, tumor volume relative to control group
Description: Human gastric cancer cells (MNK-45) were suspended in HBSS (purchased from GIBCO BRL). The cell suspension (5×10^7 cells/ml) was transplanted under the right flank skin of seven-week-old female BALB/c (nu/nu) mice at a volume of 0.1 ml. When tumor volume of the site transplanted with MNK-45 cells grew to 100-200 mm^3, mice were grouped so that the groups might be equalized in average tumor volume. The test substance was suspended in 0.5% methylcellulose, a mixed solution of hydrochloric acid and glucose (0.1N hydrochloric acid:5% glucose=1:9) or a mixed solution of dimethyl sulfoxide-Tween-glucose (dimethyl sulfoxide:Tween 80:5% glucose (containing equimolar hydrochloric acid to the test substance)=7:13:80), were administered orally to the mice twice every day. The tumor volumes were determined at the fifth day after the initiation of the administration of the test substances. The major axis and the minor axis of tumor were measured by a caliper to calculate 1/2×(major axis×minor axis×minor axis) for the tumor volume. The experiment was conducted using 10 mice in the control group (solvent-administered group) and 5 mice in test substance-administered group. The ratio in tumor volume of the group for administrating the test substance relative to that of the control group was defined as a tumor proliferation rate (%).

[2] = tested on: Human umbilical vein endothelial cells (HUVECs); test: Inhibitory activity against the growth of vascular endothelial cells stimulated with hepatocyte growth factor; format: cell-based; conditions: HUVEC, HGF stimulation, third day, Cell Counting Kit-8, read-out: IC50 (concentration necessary to inhibit cell proliferation activity by 50%)
Description: (§1) Human umbilical vein endothelial cells (HUVECs) were isolated according to the reported method (Shin Seikagaku Jikken Koza, “Cell culturing techniques”, p 197-202), and then cultured in a 5% CO2 incubator (37° C.) using EGM-2 medium (purchased from Clonetics) until the cells reached confluency.
HUVECs were suspended in a serum-free medium for endothelial cell culture (SFM, purchased from GIBCO RBL) containing 2% FBS. The cell suspension (2×10^4 cells/ml) was put in a cell culturing 96-well plate (purchased from NUNC, Production No. 167008) at 0.1 ml/well, and then cultured in a 5% CO2 incubator (37° C.) overnight. […] After the incubation, using a Plate Reader MTP-500 (Corona Electric), the absorbance of each well was determined at a measurement wavelength of 450 nm and a reference wavelength of 660 nm. While defining the absorbance of a well supplied with HGF and no test substance as 100% cell proliferation activity and the absorbance of the well supplied with no test substance and no HGF as 0% cell proliferation activity, the cell proliferation activity ratio (%) was calculated for each cell. […]

[3] = tested on: Human umbilical vein endothelial cells (HUVECs); test: Inhibitory activity against sandwich tube formation by vascular endothelial cells stimulated with hepatocyte growth factor; format: cell-based; conditions: HUVEC in collagen gel, 30 ng/ml HGF, fourth day, total tube length, read-out: IC50 (concentration necessary to inhibit the tube formation by 50%)
Description: as §1
To each well of a 24-well plate was added 0.4 ml of an ice-cold mixture of collagen:5×RPMI1640:reconstitution buffer (all purchased from Nitta Gelatin, Inc.) at 7:2:1, followed by incubating in a 5% CO2 incubator (37° C.) for 40 min to allow the solution to gel. Then, each well was supplied with 1 ml of the cell suspension of HUVEC (1-1.2×10^5 cells were used, though the cell number varied slightly depending on the lot of the HUVEC to be used) diluted with a serum free medium for endothelial cell culture (SFM, purchased from GIBCO RBL) supplemented with 10 ng/ml of EGF, followed by culturing in a 5% CO2 incubator (37° C.) overnight. […] The tube formed in the collagen gel of each well was stained with MTT, and then the tube image was loaded in a computer (Macintosh) to determine the total length of the tube by an image analysis software “Angiogenesis quantification software” (purchased from Kurabo). The ratio of the total length of a tube formed in a well supplied with the test substance relative to a tube formed in a well supplied with no test substance was expressed as a percentage. […]

| SMILES | Tumor proliferation rate (%) ([1]; Dose 30 mg/kg/time) | Tumor proliferation rate (%) ([1]; Dose 100 mg/kg/time) | IC50 [2] | Tumor proliferation rate (%) ([1]; Dose 10 mg/kg/time) | IC50 [3] |
| --- | --- | --- | --- | --- | --- |
| O=C(Cc1ccc(F)cc1)NC(=S)Nc1ccc(Oc2cc(NC(=O)N3CCCC3)ncn2)c(F)c1 [Example 3, Pyrrolidine-1-carboxylic acid [6-(2-fluoro-4-{3-[2-(4-fluorophenyl)acetyl]thioureido}phenoxy)pyrimidin-4-yl]amide] | 69% | 37% | 0.19 µM | – | – |
| O=C(Cc1ccc(F)cc1)NC(=S)Nc1ccc(Oc2ccnc(NC(=O)N3CCCC3)c2)c(F)c1 [Example 13, 4-(2-Fluoro-4-{3-[2-(4-fluorophenyl)acetyl]thioureido}phenoxy)-2-[(pyrrolidin-1-yl)carbonylamino]pyridine] | 47% | 26% | 0.073 µM | 68% | 0.13 µM |
